Experimental data from PubChem BioAssay AID256 (DTP/NCI, 2004).
Values joined by “and” are separate entries in the source; they are usually repeats but may differ in a detail not shown here. Identical values can stand only once. Inconclusive results and toxic doses are left out.

System: CD2F1 mice, L1210 leukemia ip, survival T/C
Assay: NCI In Vivo Anticancer Drug Screen. Data for tumor model L1210 Leukemia (intraperitoneal) in CD2F1 (CDF1) mice
Settings: higher = longer survival
Method in brief: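 Read-out first: treated-group measurement over vehicle-control measurement, expressed as a ratio. Animals bore a transplanted tumor line and were dosed with compound or vehicle.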

O=C1c2ccccc2C(=O)c2c(NCCNCCO)ccc(NCCNCCO)c21
T/C (endpoint: mean survival time, dose: 1.0 mg/kg/injection, schedule: Q01DX005 (iv), vehicle: clinical formulation): 104 % of control
T/C (endpoint: mean survival time, dose: 2.0 mg/kg/injection, schedule: Q01DX005 (iv), vehicle: saline): 98 % of control
T/C (endpoint: mean survival time, dose: 2.0 mg/kg/injection, schedule: Q01DX009 (ip), vehicle: saline): 153 % of control
T/C (endpoint: mean survival time, dose: 2.5 mg/kg/injection, schedule: Q01DX009 (ip), vehicle: saline): 190 % of control
T/C (endpoint: mean survival time, dose: 2.62 mg/kg/injection, schedule: Q01DX009 (ip), vehicle: saline): 156 % of control
T/C (endpoint: mean survival time, dose: 4.0 mg/kg/injection, schedule: Q01DX005 (iv), vehicle: clinical formulation): 123 % of control
T/C (endpoint: mean survival time, dose: 4.0 mg/kg/injection, schedule: Q01DX005 (oral), vehicle: acid diluted with saline): 102 % of control
T/C (endpoint: mean survival time, dose: 4.0 mg/kg/injection, schedule: Q01DX009 (ip), vehicle: clinical formulation): 157 % of control
T/C (endpoint: mean survival time, dose: 4.0 mg/kg/injection, schedule: Q01DX009 (ip), vehicle: saline): 271 % of control
T/C (endpoint: mean survival time, dose: 4.0 mg/kg/injection, schedule: Q04DX003 (ip), vehicle: water): 284 % of control
T/C (endpoint: mean survival time, dose: 5.0 mg/kg/injection, schedule: Q01DX009 (ip), vehicle: saline): 156 % of control and 186 % of control
T/C (endpoint: mean survival time, dose: 5.25 mg/kg/injection, schedule: Q01DX009 (ip), vehicle: saline): 159 % of control
T/C (endpoint: mean survival time, dose: 8.0 mg/kg/injection, schedule: Q01DX005 (iv), vehicle: clinical formulation): 120 % of control
T/C (endpoint: mean survival time, dose: 8.0 mg/kg/injection, schedule: Q01DX005 (iv), vehicle: saline): 119 % of control
T/C (endpoint: mean survival time, dose: 8.0 mg/kg/injection, schedule: Q01DX005 (oral), vehicle: acid diluted with saline): 98 % of control
T/C (endpoint: mean survival time, dose: 8.0 mg/kg/injection, schedule: Q01DX005 (oral), vehicle: saline): 101 % of control
T/C (endpoint: mean survival time, dose: 8.0 mg/kg/injection, schedule: Q01DX009 (ip), vehicle: clinical formulation): 346 % of control
T/C (endpoint: mean survival time, dose: 8.0 mg/kg/injection, schedule: Q01DX009 (ip), vehicle: saline): 281 % of control
T/C (endpoint: mean survival time, dose: 8.0 mg/kg/injection, schedule: Q01DX009 (ip), vehicle: water): 163 % of control and 166 % of control
T/C (endpoint: mean survival time, dose: 8.0 mg/kg/injection, schedule: Q04DX003 (ip), vehicle: water): 261 % of control
T/C (endpoint: mean survival time, dose: 10.0 mg/kg/injection, schedule: Q01DX009 (ip), vehicle: saline): 218 % of control and 219 % of control
T/C (endpoint: mean survival time, dose: 10.5 mg/kg/injection, schedule: Q01DX009 (ip), vehicle: saline): 228 % of control
T/C (endpoint: mean survival time, dose: 11.7 mg/kg/injection, schedule: Q01DX001 (iv), vehicle: saline): 98 % of control
T/C (endpoint: mean survival time, dose: 16.0 mg/kg/injection, schedule: Q01DX005 (ip), vehicle: saline): 170 % of control
T/C (endpoint: mean survival time, dose: 16.0 mg/kg/injection, schedule: Q01DX005 (iv), vehicle: clinical formulation): 164 % of control
T/C (endpoint: mean survival time, dose: 16.0 mg/kg/injection, schedule: Q01DX005 (oral), vehicle: saline): 101 % of control
T/C (endpoint: mean survival time, dose: 16.0 mg/kg/injection, schedule: Q01DX009 (ip), vehicle: clinical formulation): 461 % of control
T/C (endpoint: mean survival time, dose: 16.0 mg/kg/injection, schedule: Q01DX009 (ip), vehicle: saline): 529 % of control
T/C (endpoint: mean survival time, dose: 16.0 mg/kg/injection, schedule: Q01DX009 (ip), vehicle: water): 153 % of control and 183 % of control
T/C (endpoint: mean survival time, dose: 19.4 mg/kg/injection, schedule: Q01DX001 (iv), vehicle: saline): 102 % of control
T/C (endpoint: mean survival time, dose: 20.0 mg/kg/injection, schedule: Q01DX009 (ip), vehicle: saline): 158 % of control and 219 % of control
T/C (endpoint: mean survival time, dose: 32.0 mg/kg/injection, schedule: Q01DX005 (ip), vehicle: saline): 263 % of control
T/C (endpoint: mean survival time, dose: 32.0 mg/kg/injection, schedule: Q01DX005 (iv), vehicle: saline): 150 % of control
T/C (endpoint: mean survival time, dose: 32.0 mg/kg/injection, schedule: Q01DX005 (oral), vehicle: acid diluted with saline): 98 % of control
T/C (endpoint: mean survival time, dose: 32.0 mg/kg/injection, schedule: Q01DX005 (oral), vehicle: saline): 103 % of control
T/C (endpoint: mean survival time, dose: 32.0 mg/kg/injection, schedule: Q01DX009 (ip), vehicle: clinical formulation): 96 % of control
T/C (endpoint: mean survival time, dose: 32.0 mg/kg/injection, schedule: Q01DX009 (ip), vehicle: water): 92 % of control
T/C (endpoint: mean survival time, dose: 32.0 mg/kg/injection, schedule: Q04DX003 (ip), vehicle: saline): 160 % of control
T/C (endpoint: mean survival time, dose: 32.4 mg/kg/injection, schedule: Q01DX001 (ip), vehicle: saline): 158 % of control and 160 % of control
T/C (endpoint: mean survival time, dose: 32.4 mg/kg/injection, schedule: Q01DX001 (iv), vehicle: saline): 117 % of control
T/C (endpoint: mean survival time, dose: 40.0 mg/kg/injection, schedule: Q01DX009 (ip), vehicle: saline): 91 % of control and 96 % of control
T/C (endpoint: mean survival time, dose: 42.0 mg/kg/injection, schedule: Q01DX009 (ip), vehicle: saline): 90 % of control
T/C (endpoint: mean survival time, dose: 54.0 mg/kg/injection, schedule: Q01DX001 (ip), vehicle: saline): 150 % of control and 160 % of control
T/C (endpoint: mean survival time, dose: 64.0 mg/kg/injection, schedule: Q01DX005 (ip), vehicle: saline): 89 % of control
T/C (endpoint: mean survival time, dose: 64.0 mg/kg/injection, schedule: Q01DX005 (oral), vehicle: acid diluted with saline): 92 % of control
T/C (endpoint: mean survival time, dose: 64.0 mg/kg/injection, schedule: Q01DX009 (ip), vehicle: water): 90 % of control
T/C (endpoint: mean survival time, dose: 64.0 mg/kg/injection, schedule: Q04DX003 (ip), vehicle: saline): 289 % of control
T/C (endpoint: mean survival time, dose: 90.0 mg/kg/injection, schedule: Q01DX001 (ip), vehicle: saline): 182 % of control
T/C (endpoint: mean survival time, dose: 128.0 mg/kg/injection, schedule: Q01DX005 (oral), vehicle: acid diluted with saline): 100 % of control
T/C (endpoint: mean survival time, dose: 128.0 mg/kg/injection, schedule: Q04DX003 (ip), vehicle: saline): 247 % of control
T/C (endpoint: mean survival time, dose: 150.0 mg/kg/injection, schedule: Q01DX001 (ip), vehicle: saline): 221 % of control and 98 % of control
T/C (endpoint: median survival time, dose: 0.25 mg/kg/injection, schedule: Q01DX005 (iv), vehicle: clinical formulation): 97 % of control
T/C (endpoint: median survival time, dose: 0.25 mg/kg/injection, schedule: Q01DX005 (iv), vehicle: water): 102 % of control
T/C (endpoint: median survival time, dose: 0.25 mg/kg/injection, schedule: Q01DX009 (ip), vehicle: water): 118 % of control
T/C (endpoint: median survival time, dose: 0.5 mg/kg/injection, schedule: Q01DX005 (iv), vehicle: clinical formulation): 97 % of control
T/C (endpoint: median survival time, dose: 0.5 mg/kg/injection, schedule: Q01DX005 (iv), vehicle: water): 98 % of control
T/C (endpoint: median survival time, dose: 0.5 mg/kg/injection, schedule: Q01DX009 (ip), vehicle: clinical formulation): 121 % of control
T/C (endpoint: median survival time, dose: 1.0 mg/kg/injection, schedule: Q01DX005 (iv), vehicle: clinical formulation): 102 % of control
T/C (endpoint: median survival time, dose: 1.0 mg/kg/injection, schedule: Q01DX005 (iv), vehicle: water): 97 % of control
T/C (endpoint: median survival time, dose: 2.0 mg/kg/injection, schedule: Q01DX005 (iv), vehicle: clinical formulation): 97 % of control
T/C (endpoint: median survival time, dose: 2.0 mg/kg/injection, schedule: Q01DX005 (iv), vehicle: water): 102 % of control
T/C (endpoint: median survival time, dose: 2.0 mg/kg/injection, schedule: Q01DX009 (ip), vehicle: Klucel (hydroxypropylcellulose) (HPC)): 151 % of control
T/C (endpoint: median survival time, dose: 4.0 mg/kg/injection, schedule: Q01DX005 (iv), vehicle: clinical formulation): 115 % of control
T/C (endpoint: median survival time, dose: 4.0 mg/kg/injection, schedule: Q01DX009 (ip), vehicle: Klucel (hydroxypropylcellulose) (HPC)): 197 % of control
T/C (endpoint: median survival time, dose: 4.0 mg/kg/injection, schedule: Q01DX009 (ip), vehicle: clinical formulation): 160 % of control
T/C (endpoint: median survival time, dose: 4.0 mg/kg/injection, schedule: Q01DX009 (ip), vehicle: water): 156 % of control
T/C (endpoint: median survival time, dose: 4.0 mg/kg/injection, schedule: Q01DX009 (sc), vehicle: Klucel (hydroxypropylcellulose) (HPC)): 120 % of control
T/C (endpoint: median survival time, dose: 4.0 mg/kg/injection, schedule: Q01DX009 (sc), vehicle: water): 112 % of control
T/C (endpoint: median survival time, dose: 8.0 mg/kg/injection, schedule: Q01DX009 (ip), vehicle: Klucel (hydroxypropylcellulose) (HPC)): 156 % of control and 182 % of control
T/C (endpoint: median survival time, dose: 8.0 mg/kg/injection, schedule: Q01DX009 (ip), vehicle: clinical formulation): 196 % of control
T/C (endpoint: median survival time, dose: 8.0 mg/kg/injection, schedule: Q01DX009 (ip), vehicle: water): 177 % of control
T/C (endpoint: median survival time, dose: 16.0 mg/kg/injection, schedule: Q01DX005 (iv), vehicle: water): 155 % of control
T/C (endpoint: median survival time, dose: 16.0 mg/kg/injection, schedule: Q01DX005 (oral), vehicle: Klucel (hydroxypropylcellulose) (HPC)): 104 % of control
T/C (endpoint: median survival time, dose: 16.0 mg/kg/injection, schedule: Q01DX009 (ip), vehicle: Klucel (hydroxypropylcellulose) (HPC)): 170 % of control and 188 % of control
T/C (endpoint: median survival time, dose: 16.0 mg/kg/injection, schedule: Q01DX009 (ip), vehicle: clinical formulation): 238 % of control
T/C (endpoint: median survival time, dose: 16.0 mg/kg/injection, schedule: Q01DX009 (ip), vehicle: water): 262 % of control
T/C (endpoint: median survival time, dose: 16.0 mg/kg/injection, schedule: Q01DX009 (sc), vehicle: Klucel (hydroxypropylcellulose) (HPC)): 174 % of control
T/C (endpoint: median survival time, dose: 16.0 mg/kg/injection, schedule: Q01DX009 (sc), vehicle: water): 164 % of control
T/C (endpoint: median survival time, dose: 32.0 mg/kg/injection, schedule: Q01DX005 (iv), vehicle: clinical formulation): 180 % of control
T/C (endpoint: median survival time, dose: 32.0 mg/kg/injection, schedule: Q01DX005 (iv), vehicle: water): 174 % of control
T/C (endpoint: median survival time, dose: 32.0 mg/kg/injection, schedule: Q01DX005 (oral), vehicle: Klucel (hydroxypropylcellulose) (HPC)): 104 % of control
T/C (endpoint: median survival time, dose: 32.0 mg/kg/injection, schedule: Q01DX009 (ip), vehicle: Klucel (hydroxypropylcellulose) (HPC)): 197 % of control and 365 % of control
T/C (endpoint: median survival time, dose: 32.0 mg/kg/injection, schedule: Q01DX009 (ip), vehicle: clinical formulation): 115 % of control
T/C (endpoint: median survival time, dose: 32.0 mg/kg/injection, schedule: Q01DX009 (ip), vehicle: water): 101 % of control
T/C (endpoint: median survival time, dose: 32.0 mg/kg/injection, schedule: Q01DX009 (sc), vehicle: water): 172 % of control
T/C (endpoint: median survival time, dose: 64.0 mg/kg/injection, schedule: Q01DX009 (sc), vehicle: Klucel (hydroxypropylcellulose) (HPC)): 96 % of control
T/C (endpoint: median survival time, dose: 64.0 mg/kg/injection, schedule: Q01DX009 (sc), vehicle: water): 101 % of control
T/C (endpoint: median survival time, dose: 1024.0 mg/kg/injection, schedule: Q01DX005 (oral), vehicle: Klucel (hydroxypropylcellulose) (HPC)): 91 % of control
